The values below come from ChEMBL document CHEMBL5154650, “Identification and optimization of biphenyl derivatives as novel tubulin inhibitors targeting colchicine-binding site overcoming multidrug resistance” (Eur J Med Chem, 2022).

Broadly, the IC50 is the midpoint of a concentration-inhibition curve. The low end stands for greater potency in that assay, the high end for weaker potency in that assay. For orientation: T/C means the ratio of treated to control.

The test system of series [1] is HT-1080. The series is described as follows: Antiproliferative activity against human HT-1080 cells measured after 72 hrs by SRB assay. The format is functional, cell-based. The settings on record: HT-1080, 72 h.
The test system of series [2] is 4T1. Put plainly: Antitumor activity against mouse 4T1 cells xenografted in female BALB/c mouse assessed as T/C at 5 mg/kg, ip administered every other day for 14 days. The settings on record: time 14 day. The format is functional.
Series [3] is described as follows: Resistant index, ratio IC50 for KB-V1 cells over IC50 for KB cells. It is filed as functional.
Series [4] in a line: Antiproliferative activity against human MRC9 cells measured after 72 hrs by SRB assay. The format is functional, cell-based. The settings on record: MRC9, 72 h.
Series [5] concerns A549. The series is described as follows: Antiproliferative activity against human A549 cells measured after 72 hrs by SRB assay. The settings on record: Homo sapiens, A549, 72 h. The format is functional, cell-based.
Series [6] can be described thus: Resistant index, ratio IC50 for KB/VCR cells over IC50 for KB cells. The format is functional.
The subject of series [7] is A549. Put plainly: Induction of cell cycle arrest in human A549 cells assessed as accumulation at G2/M phase at 20 nM measured propidium iodide based flow cytometry analysis. The format is functional. (In flow cytometry, cells or beads pass a laser one at a time.)
Series [8] has as its system HeLa. The series is described as follows: Antiproliferative activity against human HeLa cells measured after 72 hrs by SRB assay. The format is functional, cell-based. For orientation: In SRB staining, fixed cells bind dye roughly in proportion to their protein.
Series [9] in a line: Antiproliferative activity against human KB/VCR cells measured after 72 hrs by SRB assay. It is filed as functional, cell-based.
Series [10] relates to 4T1. The series is described as follows: Antiproliferative activity against mouse 4T1 cells measured after 72 hrs by SRB assay. It is filed as functional, cell-based. Particulars: 4T1, 72 h.
Series [11] can be described thus: Toxicity in female BALB/c mouse xenografted with mouse 4T1 cells assessed as body weight loss at 5 mg/kg, ip administered every other day for 14 days and measured after 7 days. It is filed as organism-based. Particulars: in vivo, 336 h, time 14 day.
Series [12] relates to RAW264.7. Put plainly: Antiproliferative activity against mouse RAW264.7 cells measured after 72 hrs by SRB assay. It is filed as functional, cell-based. Particulars: RAW264.7, 72 h.
The test system of series [13] is K562/Adr. Put plainly: Antiproliferative activity against human K562/Adr cells measured after 72 hrs by SRB assay. It is filed as functional, cell-based.
Series [14] is described as follows: Resistant index, ratio IC50 for K562/Adr cells over IC50 for K562 cells. The format is functional.
In series [15] the test system is KB. The series is described as follows: Antiproliferative activity against human KB cells measured after 72 hrs by SRB assay. It is filed as functional, cell-based.
The subject of series [16] is KB-V1. Put plainly: Antiproliferative activity against human KB-V1 cells measured after 72 hrs by SRB assay. The format is functional, cell-based. The settings on record: KB-V1, 72 h.
Series [17] in a line: Metabolic stability in human liver microsomes assessed as intrinsic clearance at 1 uM in presence of NADPH measured by LC-MS/MS analysis. It is filed as ADME, Microsome. A general note: Microsomes from liver hold many membrane-bound enzymes, among them those of drug oxidation.
In series [18] the test system is HL-60. Put plainly: Antiproliferative activity against human HL-60 cells measured after 72 hrs by SRB assay. The format is functional, cell-based. The settings on record: HL-60, 72 h.
Series [19] has as its system THP-1. The series is described as follows: Antiproliferative activity against human THP-1 cells measured after 72 hrs by SRB assay. It is filed as functional, cell-based. Particulars: THP-1, 72 h.
The subject of series [20] is K562. The series is described as follows: Antiproliferative activity against human K562 cells measured after 72 hrs by SRB assay. It is filed as functional, cell-based. Particulars: K562, 72 h.

Regarding `COc1cc(C#N)cc(-c2ccc(C(=O)c3ccccc3)c(N)c2)c1.Cl`, the IC50 in [1] was 6.3 nM; in series [4], 166 nM; in series [5] it was 5 nM; in [8], 4.2 nM; in series [9], 6.1 nM; in series [10], 7.7 nM. In addition, the concentration for half-maximal inhibition (IC50) in series [12] was 7.6 nM; in series [13], 7.1 nM; in series [15] it was 6.3 nM; in series [16] it was 6.3 nM; in series [18], 6.8 nM; in [19], 7.4 nM. This compound registered an IC50 in series [20] of 7.8 nM. For the same compound, the T/C in series [2] is given as 29.9%. Also, the “Ratio IC50” value in series [3] came out at 1; in series [6], 1; in [14] it was 0.9. The Activity in series [7] is given as 90%; in series [11] it was “Non-Toxic”. For the same compound, the CLH in [17] came to 0.581 mL/min/g.
